From patent US9493444B2 (Merck Patent GmbH, priority 2012, dated 2016)

system: Wnt pathway (TCF-dependent transcription in HEK293 luciferase reporter cell line with ER-DSH construct); experiment: Cellular assay for Wnt pathway activity (luciferase reporter); assay type: cell-based; conditions: Homo sapiens; Wnt pathway inhibition, HEK293 luciferase reporter cells (ER-DSH, TCF promoter), 24 hours incubation, estrogen-induced
Description: 1. Cellular Assay for Wnt Pathway Activity
Compounds were tested for their Wnt pathway inhibitory activities using a luciferase reporter cell based assay. A HEK293 luciferase reporter cell line was used which contained an Estrogen Receptor-Dishevelled (ER-DSH) construct and a T-Cell Factor (TCF) dependent gene promoter luciferase construct.
Compounds, in concentrations from 30 μM down to 1 nM, were incubated for 24 hours on the cells, which were induced for TCF-dependent transcription by the addition of estrogen (10). Luciferase activities were determined using the ONE GLO Luciferase Assay System (Promega) and the ENVISION microplate reader (Perkin Elmer). For analysis, the obtained data were normalized against the untreated vehicle control and fitted for determination of the IC50 values using the Assay Explorer software (Accelrys).

Row | SMILES | IC50
1 | CC(=O)N(C)CCN(C)c1cncc(Oc2ccc3[nH]ccc3c2)n1 [Compound 106, N-(2-{[6-(1H-Indol-5-yloxy)-pyrazin-2-yl]-methyl-amino}-ethyl)-N-methyl-acetamide] | 0.2 to 1 µM
2 | CC(=O)N(C)CCN(C)c1cncc(Oc2ccc3c(c2)C(=O)CC3)n1 [Compound 108, N-Methyl-N-(2-{methyl-[6-(3-oxo-indan-5-yloxy)-pyrazin-2-yl]-amino}-ethyl)-acetamide] | 1 to 10 µM
3 | COc1ccc(Oc2cncc(N(C)CCN(C)C(C)=O)n2)c(F)c1 [Compound 109, N-(2-{[6-(2-Fluoro-4-methoxy-phenoxy)-pyrazin-2-yl]-methyl-amino}-ethyl)-N-methyl-acetamide] | 0.2 to 1 µM
4 | CC(=O)N(C)CCN(C)c1cncc(Oc2ccc(Cl)cc2F)n1 [Compound 110, N-(2-{[6-(4-Chloro-2-fluoro-phenoxy)-pyrazin-2-yl]-methyl-amino}-ethyl)-N-methyl-acetamide] | 0.2 to 1 µM
5 | CC(=O)N(C)CCN(C)c1cncc(Oc2ccc(Br)c(C)c2)n1 [Compound 111, N-(2-{[6-(4-Bromo-3-methyl-phenoxy)-pyrazin-2-yl]-methyl-amino}-ethyl)-N-methyl-acetamide] | 0.2 to 1 µM
6 | CC(=O)N(C)CCN(C)c1cncc(Oc2ccc3ccncc3c2)n1 [Compound 112, N-(2-{[6-(Isoquinolin-7-yloxy)-pyrazin-2-yl]-methyl-amino}-ethyl)-N-methyl-acetamide] | < 0.2 µM
7 | CC(=O)N(C)CCN(C)c1cncc(Oc2c(F)cc(Br)cc2F)n1 [Compound 113, N-(2-{[6-(4-Bromo-2,6-difluoro-phenoxy)-pyrazin-2-yl]-methyl-amino}-ethyl)-N-methyl-acetamide] | < 0.2 µM
8 | CC(=O)N(C)CCN(C)c1cncc(Oc2cccc(N(C)C)c2)n1 [Compound 114, N-(2-{[6-(3-Dimethyl-amino-phenoxy)-pyrazin-2-yl]-methyl-amino}-ethyl)-N-methyl-acetamide] | 1 to 10 µM
9 | CCOC(=O)c1ccc(Oc2cncc(N(C)CCN(C)C(C)=O)n2)cc1 [Compound 115, 4-(6-{[2-(Acetyl-methyl-amino)-ethyl]-methyl-amino}-pyrazin-2-yloxy)-benzoic acid ethyl ester] | 0.2 to 1 µM
10 | CN(CCN1CCCCC1=O)c1cncc(Oc2ccc(F)cc2)n1 [Compound 116, 1-(2-{[6-(4-Fluoro-phenoxy)-pyrazin-2-yl]-methyl-amino}-ethyl)-piperidin-2-one] | < 0.2 µM
11 | CC(=O)N(C)CCN(C)c1cncc(Oc2ccc(CC(N)=O)cc2)n1 [Compound 117, 2-[4-(6-{[2-(Acetyl-methyl-amino)-ethyl]-methyl-amino}-pyrazin-2-yloxy)-phenyl]-acetamide] | 0.2 to 1 µM
12 | CC(=O)N(C)CCN(C)c1cncc(Oc2ccc(-n3ccnc3)cc2)n1 [Compound 118] | < 0.2 µM
13 | CC(=O)NCCSc1cncc(Oc2ccc(F)cc2)n1 [Compound 119, N-{2-[6-(4-Fluoro-phenoxy)-pyrazin-2-ylsulfanyl]-ethyl}-acetamide] | 1 to 10 µM
14 | CNCCN(C)c1cncc(Oc2ccc(-c3cc(C(F)(F)F)ccn3)cc2)n1 [Compound 120, N,N′-Dimethyl-N-{6-[4-(4-trifluoro-methyl-pyridin-2-yl)-phenoxy]-pyrazin-2-yl}-ethane-1,2-diamine] | 1 to 10 µM
15 | CC(=O)N(C)CCN(C)c1cncc(Oc2ccc(C(F)(F)F)cc2)n1 [Compound 121, N-Methyl-N-(2-{methyl-[6-(4-trifluoro-methyl-phenoxy)-pyrazin-2-yl]-amino}-ethyl)-acetamide] | 0.2 to 1 µM
16 | CC(=O)N(C)CCN(C)c1cncc(Oc2ccc(C#N)cc2)n1 [Compound 122, N-(2-{[6-(4-Cyano-phenoxy)-pyrazin-2-yl]-methyl-amino}-ethyl)-N-methyl-acetamide] | < 0.2 µM
17 | CCOc1ccc(Oc2cncc(N(C)CCN(C)C(C)=O)n2)cc1 [Compound 123, N-(2-{[6-(4-Ethoxy-phenoxy)-pyrazin-2-yl]-methyl-amino}-ethyl)-N-methyl-acetamide] | < 0.2 µM
18 | CC(=O)N(C)CCN(C)c1cncc(Oc2ccc(-c3nc4cc(C#N)ccc4[nH]3)cc2)n1 [Compound 124, N-[2-({6-[4-(5-Cyano-1H-benzo-imidazo-2-yl)-phenoxy]-pyrazin-2-yl}-methyl-amino)-ethyl]-N-methyl-acetamide] | 0.2 to 1 µM
19 | CC(=O)c1ccc(Oc2cncc(N(C)CCN(C)C(C)=O)n2)cc1 [Compound 125, N-(2-{[6-(4-Acetyl-phenoxy)-pyrazin-2-yl]-methyl-amino}-ethyl)-N-methyl-acetamide] | 0.2 to 1 µM

Row | SMILES | IC50
20 | CC(=O)N(C)CCN(C)c1cncc(Oc2ccc(C(=O)N3CCCC(c4cccn4C)=N3)cc2)n1 [Compound 126, N-Methyl-N-{2-[methyl-(6-{4-[3-(1-methyl-1H-pyrrol-2-yl)-5,6-dihydro-4H-pyridazine-1-carbonyl]-phenoxy}-pyrazin-2-yl)-amino]-ethyl} acetamide] | 1 to 10 µM
21 | CC(=O)N(C)CCN(C)c1cncc(Oc2ccc(Cn3nc(-c4cc(F)cc(F)c4)ccc3=O)cc2)n1 [Compound 127, N-{2-[(6-{4-[3-(3,5-Difluoro-phenyl)-6-oxo-6H-pyridazin-1-ylmethyl]-phenoxy}-pyrazin-2-yl)-methyl-amino]-ethyl}-N-methyl-acetamide] | 1 to 10 µM
22 | CC(=O)N(C)CCN(C)c1cncc(Oc2ccc(-c3cc(C(F)(F)F)ccn3)cc2)n1 [Compound 128, N-Methyl-N-[2-(methyl-{6-[4-(4-trifluoro-methyl-pyridin-2-yl)-phenoxy]-pyrazin-2-yl}-amino)-ethyl]-acetamide] | 1 to 10 µM
23 | CC(=O)N(C)CCN(C)c1cncc(Sc2ccc(F)cc2)n1 [Compound 129, N-(2-{[6-(4-Fluoro-phenyl-sulfanyl)-pyrazin-2-yl]-methyl-amino}-ethyl)-N-methyl-acetamide] | 0.2 to 1 µM
24 | CC(=O)N(C)CCN(C)c1cncc(Sc2ccc(Br)cc2)n1 [Compound 130, N-(2-{[6-(4-Bromo-phenyl-sulfanyl)-pyrazin-2-yl]-methyl-amino}-ethyl)-N-methyl-acetamide] | 1 to 10 µM
25 | CC(=O)N(C)CCN(C)c1cncc(Oc2ccc(OC(F)(F)F)cc2)n1 [Compound 131, N-Methyl-N-(2-{methyl-[6-(4-trifluoro-methoxy)-pyrazin-2-yl]-amino}-ethyl)-acetamide] | < 0.2 µM
26 | CC(=O)N(C)CCN(C)c1cncc(Oc2ccc(N3CCN(c4ccncc4)CC3)cc2)n1 [Compound 132, N-Methyl-N-[2-(methyl-{6-[4-(4-pyridin-4-yl-piperazin-1-yl)-phenoxy]-pyrazin-2-yl}-amino)-ethyl]-acetamide] | < 0.2 µM
27 | CC(=O)N(C)CCN(C)c1cncc(Oc2ccc(-c3ccccn3)cc2)n1 [Compound 133, N-Methyl-N-(2-{methyl-[6-(4-pyridin-2-yl-phenoxy)-pyrazin-2-yl]-amino}-ethyl)-acetamide] | < 0.2 µM
28 | CNCCN(C)c1cncc(Oc2ccc(-c3cccc(N4CCN(C)CC4)n3)cc2)n1 [Compound 134, N,N′-Dimethyl-N-(6-{4-[6-(4-methyl-piperazin-1-yl)-pyridin-2-yl]-phenoxy}-pyrazin-2-yl)-ethane-1,2-diamine] | 1 to 10 µM
29 | CCC1Sc2ccccc2NC1c1ccc(Oc2cncc(N(C)CCN(C)C(C)=O)n2)cc1 (centres unmarked) [Compound 135, N-[2-({6-[4-(2-Ethyl-3,4-dihydro-2H-benzo[1,4]thiazin-3-yl)-phenoxy]-pyrazin-2-yl}-methyl-amino)-ethyl]-N-methyl-acetamide] | 1 to 10 µM
30 | CC(=O)N(C)CCSc1cncc(Oc2ccc(F)cc2)n1 [Compound 136, N-{2-[6-(4-Fluoro-phenoxy)-pyrazin-2-ylsulfanyl]-ethyl}-N-methyl-acetamide] | < 0.2 µM
31 | CCOC(=O)Cc1ccc(Oc2cncc(N(C)CCN(C)C(C)=O)n2)cc1 [Compound 137, [4-(6-{[2-(Acetyl-methyl-amino)-ethyl]-methyl-amino}-pyrazin-2-yloxy)-phenyl]-acetic acid ethyl ester] | < 0.2 µM
32 | CCOC(=O)C(C)c1ccc(Oc2cncc(N(C)CCN(C)C(C)=O)n2)cc1 (centres unmarked) [Compound 138, 2-[4-(6-{[2-(Acetyl-methyl-amino)-ethyl]-methyl-amino}-pyrazin-2-yloxy)-phenyl]-propionic acid ethyl ester] | 0.2 to 1 µM
33 | CCC(C)(C)c1ccc(Oc2cncc(N(C)CCN(C)C(C)=O)n2)cc1 [Compound 139, N-[2-({6-[4-(1,1-Dimethyl-propyl)-phenoxy]-pyrazin-2-yl}-methyl-amino)-ethyl]-N-methyl-acetamide] | 0.2 to 1 µM
34 | COc1ccc(Oc2cncc(N(C)CCN(C)C(C)=O)n2)cc1OC [Compound 140, N-(2-{[6-(3,4-Dimethoxy-phenoxy)-pyrazin-2-yl]-methyl-amino}-ethyl)-N-methyl-acetamide] | 1 to 10 µM
35 | COC(=O)CCc1ccc(Oc2cncc(N(C)CCN(C)C(C)=O)n2)cc1 [Compound 141, 3-[4-(6-{[2-(Acetyl-methyl-amino)-ethyl]-methyl-amino}-pyrazin-2-yloxy)-phenyl]-propionic acid methyl ester] | 1 to 10 µM
36 | CC(=O)N(C)CCN(C)c1cncc(Oc2ccc(CC#N)cc2)n1 [Compound 142, N-(2-{[6-(4-Cyano-methyl-phenoxy)-pyrazin-2-yl]-methyl-amino}-ethyl)-N-methyl-acetamide] | < 0.2 µM
37 | CC(=O)N(C)CCN(C)c1cncc(Oc2ccc(C(N)=O)cc2)n1 [Compound 143, 4-(6-{[2-(Acetyl-methyl-amino)-ethyl]-methyl-amino}-pyrazin-2-yloxy)-benzamide] | 0.2 to 1 µM
38 | CC(=O)N(C)CCN(C)c1cncc(Oc2ccc(-c3ccncc3C#N)cc2)n1 [Compound 144, N-[2-({6-[4-(3-Cyano-pyridin-4-yl)-phenoxy]-pyrazin-2-yl}-methyl-amino)-ethyl]-N-methyl-acetamide] | < 0.2 µM
